Reference: patent US10966426B2, “Herbicidal compositions comprising phenylpyrimidines” (BASF SE, priority 2016, dated 2021)

Assays:
Type in all cases: in vivo
Polygonum convolvulus = assay: greenhouse pre-emergence treatment, POLCO; details: POLCO
Excerpt: (§1) The culture containers used were plastic pots containing loamy sand with approximately 3.0% of humus as substrate. The seeds of the test plants were sown separately for each species.
(§2) For the pre-emergence treatment, the active compounds, suspended or emulsified in water, were applied directly after sowing by means of finely distributing nozzles. The containers were irrigated gently to promote germination and growth and subsequently covered with transparent plastic hoods until the plants had rooted. This cover caused uniform germination of the test plants unless this was adversely affected by the active compounds.
(§3) Depending on the species, the plants were kept at 10-25° C. and 20-35° C., respectively.
(§4) The test period extended over 2 to 4 weeks. During this time, the plants were tended and their response to the individual treatments was evaluated.
(§5) Evaluation was carried out using a scale from 0 to 100. 100 means no emergence of the plants, or complete destruction of at least the above-ground parts, and 0 means no damage or normal course of growth. A good herbicidal activity is given at values of at least 70, and very good herbicidal activity is given at values of at least 85.
(§6) The respective stated components A and B, and if appropriate, C were formulated as a 10% by weight strength emulsion concentrate and, with addition of the amount of solvent system, introduced into the spray liquor used for applying the active compound. In the examples, the solvent used was water.
(§7) In the examples below, using the method of S. R. Colby (1967) “Calculating synergistic and antagonistic responses of herbicide combinations”, Weeds 15, p. 22ff., the value E, which is expected if the activity of the individual active compounds is only additive, was calculated. E=X+Y−(X·Y/100) where X=effect in percent using herbicide A at an application rate a; • Y=effect in percent using herbicide B at application rate b; • E=expected effect (in %) of herbicide A+herbicide B at application rates a+b.

Setaria viridis [1] = assay: greenhouse post-emergence treatment, SETVI; details: 20 DAT, SETVI
Procedure, shortened: (§8)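 Scoring ran on a 0-100 scale, 100 meaning no emergence or destroyed above-ground parts, over a 2-4 week period; Colby formula E=X+Y−(X·Y/100) gave expected mixture effects. Species grew separately in loamy sand (about 3.0% humus) at 10-25° C or 20-35° C, with water as solvent.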

Poa annua = assay: greenhouse post-emergence treatment, POAAN; details: solo, WG 75%, POAAN, 12.5 gai/ha, 20 DAT
Procedure, shortened: (§9)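 Seeds sown per species in pots of loamy sand; seedlings either grown in place or transplanted days before treatment. Post-emergence spray of water-based liquor at 3–15 cm height. Injury rated 0–100 over 2 to 4 weeks.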

Helianthus annuus = assay: greenhouse pre-emergence treatment, HELAN; details: HELAN; for % activity: 21 DAT
Excerpt: as §1, §2, §3, §4, §5, §6, §7

Brachiaria decumbens [2] = assay: greenhouse post-emergence treatment, BRADC; details: 20 DAT, BRADC
Procedure, shortened: as §9

Galium aparine [3] = assay: greenhouse pre-emergence treatment, GALAP; details: GALAP; for % activity: solo, WG 75%, 21 DAT
Excerpt: as §1, §2, §3, §4, §5, §6, §7

Papaver rhoeas = assay: greenhouse post-emergence treatment, PAPRH; details: solo, WG 75%, PAPRH, 20 DAT
Procedure, shortened: (§10)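 Each species was grown separately and treated once it reached 3 to 15 cm, using actives suspended or emulsified in water. Plants were kept at 10-25° C. or 20-35° C., depending on species. Damage is a 0–100 rating taken during 2 to 4 weeks.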

Digitaria sanguinalis [4] = assay: greenhouse post-emergence treatment, DIGSA; details: solo, WG 75%, DIGSA, 100 gai/ha, 20 DAT
Procedure, shortened: as §8

Bromus sterilis [5] = assay: greenhouse post-emergence treatment, BROST; details: solo, WG 75%, BROST, 20 DAT
Procedure, shortened: as §8

Alopecurus myosuroides [6] = assay: greenhouse post-emergence treatment, ALOMY; details: solo, WG 75%, ALOMY, 50 gai/ha, 20 DAT
Procedure, shortened: as §8

Digitaria sanguinalis [7] = assay: greenhouse pre-emergence treatment, DIGSA; details: 21 DAT, DIGSA
Excerpt: as §1, §2, §3, §4, §5, §6, §7

Ambrosia elatior = assay: greenhouse pre-emergence treatment, AMBEL; details: AMBEL; for % activity: 21 DAT
Excerpt: as §1, §2, §3, §4, §5, §6, §7

Matricaria chamomilla = assay: greenhouse post-emergence treatment, MATCH; details: solo, WG 75%, MATCH, 20 DAT
Procedure, shortened: as §10

Setaria viridis [8] = assay: greenhouse pre-emergence treatment, SETVI; details: SETVI
Excerpt: as §1, §2, §3, §4, §5, §6, §7

Stellaria media = assay: greenhouse pre-emergence treatment, STEME; details: 21 DAT
Excerpt: as §1, §2, §3, §4, §5, §6, §7

Bromus sterilis [9] = assay: greenhouse pre-emergence treatment, BROST; details: solo, WG 75%, BROST, 50 gai/ha, 21 DAT
Excerpt: as §1, §2, §3, §4, §5, §6, §7

Brachiaria decumbens [10] = assay: greenhouse pre-emergence treatment, BRADC; details: Urochloa decumbens, 480 h, 20 DAT, BRADC, flumioxazin WG 51% solo 15 gai/ha
Excerpt: as §1, §2, §3, §4, §5, §6, §7

Lolium multiflorum = assay: greenhouse pre-emergence treatment, LOLMU; details: Lolium multiflorum, 480 h, 20 DAT, LOLMU, flumioxazin WG 51% solo 30 gai/ha
Excerpt: as §1, §2, §3, §4, §5, §6, §7

Apera spica-venti = assay: greenhouse pre-emergence treatment, APESV; details: Apera spica-venti, 480 h, 20 DAT, flumioxazin WG 51% solo 3.75 gai/ha
Excerpt: as §1, §2, §3, §4, §5, §6, §7

Echinocloa crus-galli = assay: greenhouse post-emergence treatment, ECHCG; details: Table X12, 20 DAT, ECHCG, solo isoproturon (SC 500 g/l) 125 gai/ha
Protocol: as §1
For the post-emergence treatment, the test plants were grown to a plant height of from 3 to 15 cm, depending on the plant habit, and only then treated with the active compounds which had been suspended or emulsified in water. To this end, the test plants were either sown directly, and grown in the same containers, or they were first grown separately as seedlings and transplanted into the test containers a few days prior to treatment.
as §3, §4, §5, §6, §7

Alopecurus myosuroides [11] = assay: greenhouse pre-emergence treatment, ALOMY; details: Table X13, 20 DAT, solo isoproturon (SC 500 g/l) 125 gai/ha
Excerpt: as §1, §2, §3, §4, §5, §6, §7

Galium aparine [12] = assay: greenhouse post-emergence treatment, GALAP; details: Galium aparine, 480 h, Table X12, 20 DAT, GALAP, solo isoproturon (SC 500 g/l) 500 gai/ha
Procedure, shortened: as §10

[13] = solo, WG 75%, 50 gai/ha, 21 DAT

With `O=C(Nc1ccc(F)cc1)c1cccc(Oc2cccc(C(F)(F)F)c2)n1` [picolinafen] the “% activity” value (Polygonum convolvulus; [13]) was 20%, the “% activity” value (Setaria viridis [1]; picolinafen WG 75% solo 12.5 gai/ha) was 30% and the “% activity” value (Setaria viridis [1]; solo, WG 75%, 12.5 gai/ha) was 30%. For the same molecule, the “% activity” value (Setaria viridis [1]; solo, WG 75%, 50 gai/ha) was 80%, the “% activity” value (Poa annua) was 40% and the “% activity” value (Helianthus annuus; picolinafen solo 12.5 gai/ha) was 10%. The “% activity” value (Helianthus annuus; picolinafen solo 50 gai/ha) was 15%, the “% activity” value (Helianthus annuus; solo, WG 75%, 12.5 gai/ha) was 10% and the “% activity” value (Helianthus annuus; solo, WG 75%, 25 gai/ha) was 20%. For the same molecule, the “% activity” value (Helianthus annuus; solo, WG 75%, 50 gai/ha) was 15%, the “% activity” value (Brachiaria decumbens [2]; picolinafen WG 75% solo 25 gai/ha) was 35% and the “% activity” value (Brachiaria decumbens [2]; picolinafen WG 75% solo 50 gai/ha) was 50%. The “% activity” value (Brachiaria decumbens [2]; solo, WG 75%, 25 gai/ha) was 35%, the “% activity” value (Brachiaria decumbens [2]; solo, WG 75%, 50 gai/ha) was 50% and the “% activity” value (Galium aparine [3]; 12.5 gai/ha) was 0%. The “% activity” value (Galium aparine [3]; 25 gai/ha) was 0%, the “% activity” value (Papaver rhoeas; 12.5 gai/ha) was 35% and the “% activity” value (Papaver rhoeas; 25 gai/ha) was 40%. The “% activity” value (Papaver rhoeas; 50 gai/ha) was 55%, the “% activity” value (Papaver rhoeas; 100 gai/ha) was 80% and the “% activity” value (Digitaria sanguinalis [4]) was 75%. The “% activity” value (Bromus sterilis [5]; 12.5 gai/ha) was 0%, the “% activity” value (Bromus sterilis [5]; 25 gai/ha) was 0% and the “% activity” value (Bromus sterilis [5]; 50 gai/ha) was 10%. The “% activity” value (Bromus sterilis [5]; 100 gai/ha) was 20%, the “% activity” value (Alopecurus myosuroides [6]) was 10% and the “% activity” value (Digitaria sanguinalis [7]; picolinafen solo 12.5 gai/ha) was 0%. For the same molecule, the “% activity” value (Digitaria sanguinalis [7]; solo, WG 75%, 25 gai/ha) was 30%, the “% activity” value (Digitaria sanguinalis [7]; solo, WG 75%, 50 gai/ha) was 60% and the “% activity” value (Ambrosia elatior; picolinafen solo 50 gai/ha) was 0%. For the same molecule, the “% activity” value (Ambrosia elatior; solo, WG 75%, 12.5 gai/ha) was 0%, the “% activity” value (Ambrosia elatior; solo, WG 75%, 25 gai/ha) was 0% and the “% activity” value (Ambrosia elatior; solo, WG 75%, 50 gai/ha) was 0%. For the same molecule, the “% activity” value (Matricaria chamomilla; 12.5 gai/ha) was 0%, the “% activity” value (Matricaria chamomilla; 25 gai/ha) was 20% and the “% activity” value (Matricaria chamomilla; 50 gai/ha) was 20%. The “% activity” value (Setaria viridis [8]; picolinafen solo 25 gai/ha, 21 DAT) was 70%, the “% activity” value (Setaria viridis [8]; picolinafen solo 50 gai/ha, 21 DAT) was 80% and the “% activity” value (Setaria viridis [8]; picolinafen solo 100 gai/ha, 21 DAT) was 85%. For the same molecule, the “% activity” value (Setaria viridis [8]; picolinafen solo 250 gai/ha, 21 DAT) was 70%, the “% activity” value (Setaria viridis [8]; solo, WG 75%, 12.5 gai/ha, 21 DAT) was 45% and the “% activity” value (Setaria viridis [8]; [13]) was 80%. For the same molecule, the “% activity” value (Stellaria media; picolinafen solo 25 gai/ha) was 20%, the “% activity” value (Stellaria media; picolinafen solo 50 gai/ha) was 50% and the “% activity” value (Stellaria media; picolinafen solo 100 gai/ha) was 65%. The “% activity” value (Bromus sterilis [9]) was 20%.

Work on `C#CCN1C(=O)COc2cc(F)c(N3C(=O)C4=C(CCCC4)C3=O)cc21` [flumioxazin] yielded an inhibition at […] (Polygonum convolvulus; Fallopia convolvulus, 480 h, 20 DAT, flumioxazin WG 51% solo 7.5 gai/ha) of 65%, a % herbicidal activity (weed control, 0-100 scale) at 15 g/ha (Brachiaria decumbens [10]) of 40% and an inhibition at 30 g/ha (Helianthus annuus; Helianthus annuus, 480 h, 20 DAT, flumioxazin WG 51% solo 30 gai/ha) of 50%. The inhibition at 30 g/ha (Lolium multiflorum) was 65%, the % herbicidal activity (weed control, 0-100 scale) at […] (Galium aparine [3]; Galium aparine, 480 h, 20 DAT, flumioxazin WG 51% solo 7.5 gai/ha) was 0% and the % herbicidal activity (weed control, 0-100 scale) at 30 g/ha (Galium aparine [3]; Galium aparine, 480 h, 20 DAT, flumioxazin WG 51% solo 30 gai/ha) was 65%. The percent weed control (herbicidal activity, 0-100 scale) at 3.75 g/ha (Ambrosia elatior; Ambrosia artemisiifolia, 480 h, 20 DAT, flumioxazin WG 51% solo 3.75 gai/ha) was 0%, the percent weed control (herbicidal activity, 0-100 scale) at […] (Ambrosia elatior; Ambrosia artemisiifolia, 480 h, 20 DAT, flumioxazin WG 51% solo 7.5 gai/ha) was 0% and the inhibition at 3.75 g/ha (Apera spica-venti) was 25%.

In the case of `CC(C)c1ccc(NC(=O)N(C)C)cc1` [isoproturon], the “% activity” value (Echinocloa crus-galli) is reported as 40%, the “% activity” value (Alopecurus myosuroides [11]) is reported as 0% and the pest or weed control at 500000 µg/mL, 500 g/ha (Galium aparine [12]) is reported as 30%. The “% activity” value (Setaria viridis [8]; Table X13, 20 DAT, solo isoproturon (SC 500 g/l) 125 gai/ha) was 0% and the “% activity” value (Setaria viridis [8]; Table X13, 20 DAT, solo isoproturon (SC 500 g/l) 500 gai/ha) was 75%.
